Columns and labels:
[1] = target: Voltage-gated inwardly rectifying potassium channel KCNH2 (Homo sapiens, UniProt Q12809); assay: Inhibition of human Erg expressed in HEK293 cells by whole cell patch clamp analysis
[2] = Inhibition of rat N-type calcium channel alpha1B/alpha2delta-1/beta1b expressed in HEK293 cells by whole cell patch clamp analysis; assay type: cell-based
[3] = test system: Rattus norvegicus; assay: Antiallodynic activity in rat chung model of neuropathic pain assessed as paw withdrawal at 30 mg/kg, po measured at 30 mins interval for 3 hrs relative to control
[4] = species on record: Rattus norvegicus; assay: animal or person; settings: ip, read-out: INH
[5] = test system: Rattus norvegicus; assay: Antiallodynic activity in rat chung model of neuropathic pain assessed as inhibition of nerve ligation-induced thermal hyperalgesia at 30 mg/kg, po measured at 30 mins interval for 3 hrs relative to control
[6] = species on record: Rattus norvegicus; assay: animal or person; settings: ip, read-out: INH; remark: listed apart in the source
[7] = species on record: Rattus norvegicus; assay: animal or person; settings: ip, read-out: INH; remark: listed apart in the source
[8] = Inhibition of rat L-type calcium channel alpha1C/alpha2delta-1/beta1b expressed in HEK293 cells by whole cell patch clamp analysis; assay type: cell-based

Chain of Voltage-gated inwardly rectifying potassium channel KCNH2 (Q12809 whole entry): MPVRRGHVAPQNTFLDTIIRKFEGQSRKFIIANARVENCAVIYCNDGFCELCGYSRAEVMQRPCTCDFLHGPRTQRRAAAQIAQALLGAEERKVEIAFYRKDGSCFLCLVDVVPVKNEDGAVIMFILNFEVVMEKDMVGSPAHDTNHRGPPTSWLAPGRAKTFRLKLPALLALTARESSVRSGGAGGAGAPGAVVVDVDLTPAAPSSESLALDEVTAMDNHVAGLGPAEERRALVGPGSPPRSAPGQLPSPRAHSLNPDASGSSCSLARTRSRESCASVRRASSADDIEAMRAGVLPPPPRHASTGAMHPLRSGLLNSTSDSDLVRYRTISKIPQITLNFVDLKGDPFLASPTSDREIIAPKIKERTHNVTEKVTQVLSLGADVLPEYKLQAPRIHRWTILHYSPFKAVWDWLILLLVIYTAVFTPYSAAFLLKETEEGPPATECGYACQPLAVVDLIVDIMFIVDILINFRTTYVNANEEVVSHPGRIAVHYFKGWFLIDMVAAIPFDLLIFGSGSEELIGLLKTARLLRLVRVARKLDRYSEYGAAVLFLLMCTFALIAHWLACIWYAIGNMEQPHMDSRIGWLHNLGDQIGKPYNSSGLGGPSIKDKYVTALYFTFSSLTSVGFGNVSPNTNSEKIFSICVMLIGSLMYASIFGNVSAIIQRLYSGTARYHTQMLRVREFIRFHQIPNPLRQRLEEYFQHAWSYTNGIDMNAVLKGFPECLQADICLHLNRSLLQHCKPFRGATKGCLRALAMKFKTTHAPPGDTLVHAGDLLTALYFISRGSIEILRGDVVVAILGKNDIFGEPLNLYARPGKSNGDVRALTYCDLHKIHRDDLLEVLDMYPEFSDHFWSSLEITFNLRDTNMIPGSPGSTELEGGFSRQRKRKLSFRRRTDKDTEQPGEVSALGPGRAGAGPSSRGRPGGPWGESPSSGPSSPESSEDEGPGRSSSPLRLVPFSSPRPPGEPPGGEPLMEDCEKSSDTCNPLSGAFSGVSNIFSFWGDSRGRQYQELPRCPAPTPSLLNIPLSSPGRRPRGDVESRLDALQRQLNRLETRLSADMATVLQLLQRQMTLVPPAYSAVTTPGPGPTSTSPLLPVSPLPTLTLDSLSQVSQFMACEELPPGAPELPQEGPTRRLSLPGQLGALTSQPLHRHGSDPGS

COc1cc(CN2CCN(CCCCCC(c3ccc(F)cc3)c3ccc(F)cc3)CC2)cc(OC)c1OC showed an IC50 [1] of 400 nM.

With COc1cc(CN2CCN(CCCCCC(c3ccc(F)cc3)c3ccc(F)cc3)CC2)cc(OC)c1O the IC50 [2] was 400 nM.

Compound COc1cc(C(=O)N2CCN(C(=O)CCCCC(c3ccc(F)cc3)c3ccc(F)cc3)CC2)cc(OC)c1O has an IC50 [2] of 600 nM.

CC(C)(C)c1cc(CN2CCN(CCCCCC(c3ccc(F)cc3)c3ccc(F)cc3)CC2)cc(C(C)(C)C)c1O gave an IC50 [2] of 40 nM and an IC50 [1] of 100 nM.

CC(C)(C)c1cc(C(=O)N2CCN(CCCCCC(c3ccc(F)cc3)c3ccc(F)cc3)CC2)cc(C(C)(C)C)c1O gave an IC50 [2] of 150 nM.

In the case of CC(C)(C)c1cc(CN2CCN(C(=O)CCCCC(c3ccc(F)cc3)c3ccc(F)cc3)CC2)cc(C(C)(C)C)c1O, the IC50 [2] is reported as 180 nM.

For CC(C)(C)c1cc(C(=O)N2CCN(C(=O)CCCCC(c3ccc(F)cc3)c3ccc(F)cc3)CC2)cc(C(C)(C)C)c1O, the IC50 [2] was 220 nM.

COc1c(C(C)(C)C)cc(CN2CCN(CCCCCC(c3ccc(F)cc3)c3ccc(F)cc3)CC2)cc1C(C)(C)C showed an IC50 [2] of 90 nM.

In the case of COc1c(C(C)(C)C)cc(C(=O)N2CCN(CCCCCC(c3ccc(F)cc3)c3ccc(F)cc3)CC2)cc1C(C)(C)C, the IC50 [2] is reported as 110 nM.

COc1c(C(C)(C)C)cc(CN2CCN(C(=O)CCCCC(c3ccc(F)cc3)c3ccc(F)cc3)CC2)cc1C(C)(C)C gave an IC50 [2] of 100 nM.

Compound COc1c(C(C)(C)C)cc(C(=O)N2CCN(C(=O)CCCCC(c3ccc(F)cc3)c3ccc(F)cc3)CC2)cc1C(C)(C)C has an IC50 [2] of 90 nM, an Emax at 30 mg/kg [3] of 1.9% and an inhibition in vivo at 30 mg/kg [4] of 79%. It also gave an Emax at 30 mg/kg [5] of 54.2%.

In the case of CC(C)(C)c1cc(CN2CCN(CCCCCC(c3ccc(F)cc3)c3ccc(F)cc3)CC2)cc(C(C)(C)C)c1, the IC50 [2] is reported as 140 nM.

With CC(C)(C)c1cc(C(=O)N2CCN(C(=O)CCCCC(c3ccc(F)cc3)c3ccc(F)cc3)CC2)cc(C(C)(C)C)c1 the IC50 [2] was 300 nM.

With Fc1ccc(C(CCCCCN2CCN(Cc3cc(C(F)(F)F)cc(C(F)(F)F)c3)CC2)c2ccc(F)cc2)cc1 the IC50 [2] was 1100 nM.

With O=C(CCCCC(c1ccc(F)cc1)c1ccc(F)cc1)N1CCN(C(=O)c2cc(C(F)(F)F)cc(C(F)(F)F)c2)CC1 the IC50 [2] was 510 nM.

For COc1c(C(C)(C)C)cc(C(=O)N2CCN(C(=O)CCCCC(c3ccc(F)cc3)c3ccc(F)cc3)[C@@H](C)C2)cc1C(C)(C)C, the IC50 [2] was 10 nM.

For COc1c(C(C)(C)C)cc(C(=O)N2CCN(C(=O)CCCCC(c3ccc(F)cc3)c3ccc(F)cc3)C[C@@H]2C)cc1C(C)(C)C, the inhibition in vivo at 30 mg/kg [6] was 61%, the inhibition in vivo at 30 mg/kg [7] was 50% and the IC50 [2] was 40 nM. The IC50 [8] was 144000 nM, the Emax at 30 mg/kg [3] was 31.7% and the inhibition in vivo at 30 mg/kg [4] was 79%. The Emax at 30 mg/kg [5] was 85.8%.

In the case of CC(C)(C)c1cc(C(=O)NCC2CCN(C(=O)CCCCC(c3ccc(F)cc3)c3ccc(F)cc3)C2)cc(C(C)(C)C)c1 (stereo not drawn), the IC50 [2] is reported as 110 nM.

COc1c(C(C)(C)C)cc(C(=O)NCC2CCN(C(=O)CCCCC(c3ccc(F)cc3)c3ccc(F)cc3)C2)cc1C(C)(C)C (stereo not drawn) showed an IC50 [2] of 40 nM.

Work on O=C(NCC1CCN(C(=O)CCCCC(c2ccc(F)cc2)c2ccc(F)cc2)C1)c1cc(C(F)(F)F)cc(C(F)(F)F)c1 (stereo not drawn) yielded an IC50 [2] of 210 nM.

In the case of O=C(NCC1CCN(C(=O)CCCCC(c2ccc(F)cc2)c2ccc(F)cc2)C1)c1cc(F)cc(C(F)(F)F)c1 (stereo not drawn), the IC50 [2] is reported as 750 nM.

Compound COc1cc(C(=O)NCC2CCN(CCCCCC(c3ccc(F)cc3)c3ccc(F)cc3)C2)cc(OC)c1OC (stereo not drawn) has an IC50 [2] of 280 nM.

Work on O=C(NCC1CCN(CCCCCC(c2ccc(F)cc2)c2ccc(F)cc2)C1)c1cc(C(F)(F)F)cc(C(F)(F)F)c1 (stereo not drawn) yielded an IC50 [2] of 150 nM.

Compound COc1cc(CNCC2CCN(CCCCCC(c3ccc(F)cc3)c3ccc(F)cc3)C2)cc(OC)c1OC (stereo not drawn) has an IC50 [2] of 60 nM.

CC(C)(C)c1cc(CNCC2CCN(CCCCCC(c3ccc(F)cc3)c3ccc(F)cc3)C2)cc(C(C)(C)C)c1O (stereo not drawn) showed an IC50 [2] of 50 nM.

In the case of CC(C)(C)c1cc(CNCC2CCN(CCCCCC(c3ccc(F)cc3)c3ccc(F)cc3)C2)cc(C(C)(C)C)c1 (stereo not drawn), the IC50 [2] is reported as 30 nM and the IC50 [1] is reported as 460 nM.

CC(C)(C)c1cc(C(=O)NC[C@H]2CCN(C(=O)CCCCC(c3ccc(F)cc3)c3ccc(F)cc3)C2)cc(C(C)(C)C)c1 showed an IC50 [2] of 160 nM.

CC(C)(C)c1cc(C(=O)NC[C@@H]2CCN(C(=O)CCCCC(c3ccc(F)cc3)c3ccc(F)cc3)C2)cc(C(C)(C)C)c1 gave an IC50 [2] of 120 nM.

COc1c(C(C)(C)C)cc(C(=O)NC[C@H]2CCN(C(=O)CCCCC(c3ccc(F)cc3)c3ccc(F)cc3)C2)cc1C(C)(C)C showed an IC50 [2] of 150 nM.

Work on O=C(NC[C@H]1CCN(C(=O)CCCCC(c2ccc(F)cc2)c2ccc(F)cc2)C1)c1cc(C(F)(F)F)cc(C(F)(F)F)c1 yielded an IC50 [2] of 100 nM.

O=C(NC[C@@H]1CCN(C(=O)CCCCC(c2ccc(F)cc2)c2ccc(F)cc2)C1)c1cc(C(F)(F)F)cc(C(F)(F)F)c1 gave an IC50 [2] of 90 nM.

Compound COc1cc(C(=O)NCC2CCN(C(=O)CCCCC(c3ccccc3)C3CCN(C)CC3)C2)cc(OC)c1OC (stereo not drawn) has an IC50 [2] of 3200 nM.

Work on COc1c(C(C)C)cc(C(=O)NCC2CCN(C(=O)CCCCC(c3ccccc3)C3CCN(C)CC3)C2)cc1C(C)C (stereo not drawn) yielded an IC50 [2] of 1900 nM.

In the case of COc1c(C)cc(C(=O)NCC2CCN(C(=O)CCCCC(c3ccccc3)C3CCN(C)CC3)C2)cc1C (stereo not drawn), the IC50 [2] is reported as 100 nM.

Work on CN1CCC(C(CCCCC(=O)N2CCC(CNC(=O)c3cc(Cl)cc(Cl)c3)C2)c2ccccc2)CC1 (stereo not drawn) yielded an IC50 [2] of 880 nM.

COc1cc(C(=O)N2CCC(CNC(=O)CCCCC(c3ccc(F)cc3)c3ccc(F)cc3)C2)cc(OC)c1OC (stereo not drawn) gave an IC50 [2] of 840 nM and an IC50 [1] of 750 nM.

In the case of COc1c(C(C)(C)C)cc(C(=O)N2CCC(CNC(=O)CCCCC(c3ccc(F)cc3)c3ccc(F)cc3)C2)cc1C(C)(C)C (stereo not drawn), the IC50 [2] is reported as 1900 nM.

COc1cc(CN2CCC(CNCCCCCC(c3ccc(F)cc3)c3ccc(F)cc3)C2)cc(OC)c1OC (stereo not drawn) showed an IC50 [2] of 60 nM and an IC50 [1] of 100 nM.

Compound CC(C)(C)c1cc(CN2CCC(CNCCCCCC(c3ccc(F)cc3)c3ccc(F)cc3)C2)cc(C(C)(C)C)c1O (stereo not drawn) has an IC50 [2] of 4 nM.

For COc1c(C(C)(C)C)cc(CN2CCC(CNCCCCCC(c3ccc(F)cc3)c3ccc(F)cc3)C2)cc1C(C)(C)C (stereo not drawn), the IC50 [2] was 32 nM.

Source: ChEMBL document CHEMBL2029256, “Structure-activity relationships of trimethoxybenzyl piperazine N-type calcium channel inhibitors” (Bioorg Med Chem Lett, 2012)
